From ChEMBL document CHEMBL1201862, “PubChem BioAssay data set” (2004)
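The compound was tested at five concentrations on cells cultured in 96-well plates, with a 48-hour exposure period. GI50: concentration for 50% inhibition of growth.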 The source made the active and inactive calls. Rule as the data show it: active = GI50 up to about 1.1 µM and inactive = higher.

Assays:
Assay in all cases: DTP human tumour cell line panel, 48 h
ACHN = test system: ACHN
OVCAR-5 = test system: OVCAR-5
OVCAR-3 = test system: OVCAR-3
SK-MEL-2 = test system: SK-MEL-2
SF-268 = test system: SF-268
BT-549 = test system: BT-549
MCF7 = test system: MCF7
HOP-92 = test system: HOP-92
MDA-N = test system: MDA-N
COLO 205 = test system: COLO 205
HCT-15 = test system: HCT-15
TK-10 = test system: TK-10
K562 = test system: K562
U-251 = test system: U-251
EKVX = test system: EKVX
A498 = test system: A498
CCRF-CEM = test system: CCRF-CEM
HCT-116 = test system: HCT-116
Hs-578T = test system: Hs-578T

Row | Compound | GI50 (ACHN) | GI50 (OVCAR-5) | GI50 (OVCAR-3) | GI50 (SK-MEL-2) | GI50 (SF-268) | GI50 (BT-549) | GI50 (MCF7) | GI50 (HOP-92) | GI50 (MDA-N) | GI50 (COLO 205) | GI50 (HCT-15) | GI50 (TK-10) | GI50 (K562) | GI50 (U-251) | GI50 (EKVX) | GI50 (A498) | GI50 (CCRF-CEM) | GI50 (HCT-116) | GI50 (Hs-578T)
1 | CN1CCN(C2CC(=O)c3c(Cl)sc(Cl)c32)CC1 (configuration not stated) | 18.5 µM (inactive) | 27.7 µM (inactive) | 16.3 µM (inactive) | 19.1 µM (inactive) | 8.85 µM (inactive) | 20.3 µM (inactive) | 4.99 µM (inactive) | 10.4 µM (inactive) | 9.02 µM (inactive) | 20.7 µM (inactive) | 10.4 µM | 29 µM (inactive) | 4.06 µM (inactive) | 11.3 µM (inactive) | 23.9 µM (inactive) | 43.2 µM (inactive) | 3.45 µM (inactive) | 6.92 µM (inactive) | 
2 | O=C1C=CC(=O)c2c1ccc1c3ccccc3n(Cc3ccc([N+](=O)[O-])cc3)c21 | > 100 µM (inactive) |  | > 100 µM (inactive) |  | > 100 µM (inactive) | > 100 µM (inactive) | > 100 µM (inactive) |  | > 100 µM (inactive) | > 100 µM (inactive) | 70.1 µM | > 100 µM (inactive) | 19.7 µM (inactive) | > 100 µM (inactive) | > 100 µM (inactive) |  | 10.9 µM (inactive) | > 100 µM (inactive) | 
3 | COC(=O)CC1C(=O)OCc2c1cc1n(c2=O)Cc2c-1nc1ccccc1c2OC (configuration not stated) | 23.6 µM (inactive) | 58.9 µM (inactive) |  | > 100 µM (inactive) | 19.3 µM (inactive) |  |  | 20.7 µM (inactive) |  | > 100 µM (inactive) | > 100 µM | > 100 µM (inactive) | 84.1 µM (inactive) | 68.9 µM (inactive) | > 100 µM (inactive) | > 100 µM (inactive) | 6 µM (inactive) | 13.4 µM (inactive) | 
4 | N#CSCc1nc2ccc(Cl)cc2c(-c2ccccc2)[n+]1[O-] | 16.9 µM (inactive) | 21 µM (inactive) | 26.8 µM (inactive) | 20.1 µM (inactive) | 25.7 µM (inactive) |  |  | 16 µM (inactive) |  | 60.1 µM (inactive) | 17.3 µM | > 100 µM (inactive) | 25.7 µM (inactive) | 29.4 µM (inactive) | 23.2 µM (inactive) | > 100 µM (inactive) | 14.5 µM (inactive) | 19.7 µM (inactive) | 
5 | CCOC(=O)C1C(c2ccccc2)C2(C#N)C(=N)OC1(C)C2(C#N)C#N (configuration not stated) | 20.9 µM (inactive) | 21.7 µM (inactive) |  | 20.7 µM (inactive) | 22.4 µM (inactive) |  | 46.8 µM (inactive) | 20 µM (inactive) | 14.7 µM (inactive) | 16.4 µM (inactive) | 37.3 µM | 26.2 µM (inactive) | 19.8 µM (inactive) | 28.7 µM (inactive) | 21.1 µM (inactive) | 32.7 µM (inactive) | 23.5 µM (inactive) | 16.3 µM (inactive) | 29.5 µM (inactive)
6 | CN(C)C1(N(C)C)Oc2c(c(=O)n(C)c(=O)n2C)C(c2ccc(Br)cc2)C1(F)F (configuration not stated) | > 100 µM (inactive) | > 100 µM (inactive) | > 100 µM (inactive) | > 100 µM (inactive) | > 100 µM (inactive) | > 100 µM (inactive) | > 100 µM (inactive) | 82.4 µM (inactive) |  | > 100 µM (inactive) | > 100 µM | > 100 µM (inactive) |  | > 100 µM (inactive) | > 100 µM (inactive) | > 100 µM (inactive) | > 100 µM (inactive) | > 100 µM (inactive) | 
7 | CC1Cc2cc(O)c(O)cc2-c2cc(O)c(O)cc2CC1C (configuration not stated) | 24.6 µM (inactive) | 18.9 µM (inactive) | 10.9 µM (inactive) | 4.32 µM (inactive) | 25.9 µM (inactive) |  | 12.1 µM (inactive) | 15.3 µM (inactive) | 3.07 µM (inactive) | 17.8 µM (inactive) | 9.29 µM | 26.4 µM (inactive) | 12.8 µM (inactive) | 15.2 µM (inactive) | 18.5 µM (inactive) | 25 µM (inactive) | 14.1 µM (inactive) | 17.9 µM (inactive) | 9.04 µM (inactive)
8 | C1=C[C@]2(CCC13OCCO3)COc1ccccc12 | 36.6 µM (inactive) | 30.9 µM (inactive) | 36.1 µM (inactive) | 34.7 µM (inactive) |  |  | 33.3 µM (inactive) | 46.7 µM (inactive) | 35.6 µM (inactive) | 88.7 µM (inactive) | 28 µM | 49.1 µM (inactive) | 11.9 µM (inactive) | 48.8 µM (inactive) | 66.1 µM (inactive) | > 100 µM (inactive) | 33.3 µM (inactive) | 37.1 µM (inactive) | 
9 | CC1=C(OC2OC(CO)C(O)C(O)C2O)C(=O)C[C@H]2C1=CC[C@@H]1[C@@]2(C)C(=O)C[C@]2(C)[C@@H]([C@@](C)(O)C(=O)CCC(C)(C)O)[C@H](O)C[C@@]12C (some centres not stated) | > 100 µM (inactive) | > 100 µM (inactive) | > 100 µM (inactive) | > 100 µM (inactive) | > 100 µM (inactive) | > 100 µM (inactive) | > 100 µM (inactive) | > 100 µM (inactive) | > 100 µM (inactive) | > 100 µM (inactive) | > 100 µM | > 100 µM (inactive) | > 100 µM (inactive) | > 100 µM (inactive) | > 100 µM (inactive) | > 100 µM (inactive) | > 100 µM (inactive) | > 100 µM (inactive) | 
10 | CCCN(CCC)C(=O)c1c([N+](=O)[O-])cc(C(F)(F)F)cc1[N+](=O)[O-] | 65.9 µM (inactive) | 65.5 µM (inactive) | 10.7 µM (inactive) | 39.4 µM (inactive) | > 100 µM (inactive) |  |  | 34.5 µM (inactive) |  | 15.4 µM (inactive) | 27 µM | > 100 µM (inactive) | 28.3 µM (inactive) | 64.9 µM (inactive) | 52.5 µM (inactive) | 75.7 µM (inactive) | 62.4 µM (inactive) | 30.5 µM (inactive) | 
11 | CCc1cccc(NC(=O)c2cc(/C=C/c3ccccc3)nc(S)n2)c1 | > 100 µM (inactive) | > 100 µM (inactive) | > 100 µM (inactive) | > 100 µM (inactive) | > 100 µM (inactive) |  |  | > 100 µM (inactive) |  | > 100 µM (inactive) | > 100 µM | > 100 µM (inactive) | > 100 µM (inactive) | > 100 µM (inactive) | > 100 µM (inactive) | > 100 µM (inactive) | > 100 µM (inactive) | > 100 µM (inactive) | 
12 | O=C(Nc1ccccc1)c1nn(-c2cc(S(=O)(=O)O)c([N+](=O)[O-])cc2Cl)[n+](-c2cc(S(=O)(=O)[O-])c([N+](=O)[O-])cc2Cl)n1 | > 100 µM (inactive) | > 100 µM (inactive) | > 100 µM (inactive) | > 100 µM (inactive) | > 100 µM (inactive) |  | > 100 µM (inactive) |  | > 100 µM (inactive) | > 100 µM (inactive) | > 100 µM | > 100 µM (inactive) | > 100 µM (inactive) | > 100 µM (inactive) | > 100 µM (inactive) |  | > 100 µM (inactive) | > 100 µM (inactive) | > 100 µM (inactive)
